Laboratory results published in patent publication US20090221715A1, “NOVEL POLYMORPH OF ATOVAQUONE” (priority 2008, published 2009).

Assay: Bulk density and tapped density comparison of atovaquone crystalline forms
Assay type: physicochemical
Conditions: powder of the crystalline form

Q: With `O=C1C(O)=C([C@H]2CC[C@H](c3ccc(Cl)cc3)CC2)C(=O)c2ccccc21` [Form III (ATO-8110), trans-2-[4-(4-chlorophenyl)cyclohexyl]-3-hydroxy-1,4-naphthoquinone] as the compound, how does the Bulk density read?
A: 0.2975 g/mL

Q: And the Tapped density?
A: 0.4010 g/mL

Q: For `O=C1C(O)=C([C@H]2CC[C@H](c3ccc(Cl)cc3)CC2)C(=O)c2ccccc21` [Form I (ATO-8094P), trans-2-[4-(4-chlorophenyl)cyclohexyl]-3-hydroxy-1,4-naphthoquinone], which Bulk density is on record?
A: 0.4802 g/mL

Q: What about the Tapped density of the same compound?
A: 0.6402 g/mL

Q: Which Bulk density does the source give for `O=C1C(O)=C([C@H]2CC[C@H](c3ccc(Cl)cc3)CC2)C(=O)c2ccccc21` [Form IPCA-ATO (ATO-8099), trans-2-[4-(4-chlorophenyl)cyclohexyl]-3-hydroxy-1,4-naphthoquinone] here?
A: 0.2353 g/mL

Q: What about the Tapped density of the same compound?
A: 0.3801 g/mL
